# According to patent US20130244875A1, “METHODS AND COMPOSITIONS FOR IMPROVING PLANT HEALTH” (priority 2006, published 2013):
# “And” between values parts separate entries of the source, which are not always exact repeats. Equal values may be shown once. Read-outs that look alike come from different tables or passages of the source.
# Columns and labels:
# [1] = test system: DMOxRR2Y soybean stack; test: 2,4-D postemergence injury on DMOxRR2Y soybean; format: in vivo; settings: V3, 3, 30, 60, 120 and 280 g ae/ha, all rates, 20 days after treatment
# Description: A rate titration of 2,4-D (2,4-D amine, Helena Chemical Co., Memphis, Tenn.) was applied as postemergence (POST) treatment at V3 growth state of breeding stack of DMO soybean and RR2Y (RR2Y is MON89788 event, U.S. application Ser. No. 11/441,914) transgenic soybean. 2,4-D was applied as a postemergence (POST) treatment (V3) at 5 application rates on DMOxRR2Y soybean stack and compared for total crop injury across all application rates. The POST herbicide application rates used for this trial were 3 g ae/ha (acid equivalent/hectare), 30 g ae/ha, 60 g ae/ha, 120 g ae/ha and 280 g ae/ha of 2,4-D. The treated plants were rated for 2,4-D symptoms 20 days after treatment.
# [2] = test system: haploid seeds of corn genotype 01DKD2; test: Haploid corn seed pretreatment before colchicine doubling; format: in vivo; settings: seeds imbibed 24 hours before 0.0625% colchicine; for Doubling efficiency: water 5; for 10 inch pot survival: water 53; for Percent Pollination: water 81; for Percent germination: water 90
# Method: The use of these chemicals during the doubling process is toxic and stressful to the treated plant or seed. […] To determine quantify the effect of acetyl salicylic acid (ASA) and salicylic acid (SA) on plant health of haploid plants subjected to colchicine treatments, haploid seeds of corn genotype 01DKD2 were treated with 100-500 microMolar (μM) of DCSA, ASA, or SA or combinations thereof by imbibing the seeds in a solution of the compound for 24 hours before colchicine treatment of the seeds. A solution of 0.0625% colchicine (Sigma Aldrich, St. Louis, Mo. Cat#C3915) and 1.5% DMSO (Sigma Aldrich, St. Louis, Mo. Cat#D8779) was used to treat the seeds and the seeds incubated in the solution at 25° C. for 5 days in the dark. The germination rate, survival rate of the treated plants, fertility, and doubling rate were measured.
# [3] = test system: soybean plants; test: Copper injury on soybeans; format: in vivo; settings: 1000 ppm copper sulfate foliar spray alone; soybean V1-2; 5 days after treatment
# Description: Plants are sensitive to heavy metal toxicity. Heavy metals are present in the environment or sometimes applied to plants for pest control. Symptoms of plant injury following treatment with a heavy metal compound, for example, a compound containing copper, are necrotic leaf spotting and flecking with more severe injury resulting in larger reddish brown spots, […] necrosis and/or necrotic puckered leaves.
# [4] = test system: Verticillium (isolate DPL); test: Verticillium wilt protection in cotton, isolate DPL; format: in vivo, Verticillium dahliae; settings: cotton ST6611, DCSA 1 lb/A, glyphosate 0.75 lb/A, 24 hours before inoculation
# Description: (§1) DCSA was unexpectedly found to provide protection to cotton plants against Verticillium dahliae, causal agent of cotton wilt disease (Table 6). Cotton plants of the variety ST6611, BOLLGARD 2, ROUNDUP READY FLEX, were inoculated with a moderate isolate (DPL) or a virulent isolate (King) of Verticillium by a seedling dipping method. Seedlings at the first true leaf stage were taken out from the pots, one inch of roots were cut off, seedlings were dipped in a spore slurry for one minute, and then transplanted back in the pots. These strains were isolated and provided by Dr. Terry Wheeler (Texas A&M University, TX USA). DCSA was applied at the rate of 1 lb/A and glyphosate (ROUNDUP WEATHERMAX, Monsanto Company, St. Louis, Mo.) at the rate of 0.75 lb/A 24 hours before inoculation. Protection against Verticillium was measured on a disease severity scale of 1-9:1 being healthy and 9 being dead because of disease, and also was measured as the number of plants that survived out of 10 inoculated plants.
# [5] = test system: Verticillium (isolate King); test: Verticillium wilt protection in cotton, isolate King; format: in vivo, Verticillium dahliae; settings: cotton ST6611, DCSA 1 lb/A, glyphosate 0.75 lb/A, 24 hours before inoculation
# Description: as §1
# [6] = test system: soybean plants; settings: for % injury: N3001 non-transgenic soybean, 4 DAT, ANOVA mean; for % injury at 5 DAT Paraquat alone control 100 g ae/ha: paraquat alone 100 g ae/ha
# Method: For this example, the plants were grown as described in the above example. Transgenic and non transgenic soybean plants carrying the DMO gene in their genome were either treated with Paraquat (Gramoxone®; Syngenta) to create oxidative stress or with dicamba followed by Paraquat at V3 stage. The dicamba rate was 1 lb/Acre or 1120 g ae/ha. […] Plants were then evaluated for paraquat injury by visually assessing injury at a particular day after treatment (DAT) for injury on a scale of 0 to 100 percent relative to untreated control plants, with zero representing “no” injury and 100% representing “complete” injury or death. Data were collected and analyzed using suitable statistical methods.
# In another experiment, the effect of externally applied DCSA was tested for its benefit in protecting soybean plants from oxidative stress injury caused by Paraquat. Different amounts of DCSA were applied 24 hrs before applying Paraquat to test any correlation between the amount of DCSA applied and the extent of protection obtained from oxidative stress measured in terms of reduction in % injury as described above. Different levels of dicamba were also applied separately to test the same hypothesis.
# [7] = test system: cotton plants; test: Paraquat (Gramoxone) oxidative stress injury in cotton; format: in vivo; settings: 2 DAT, DCSA (if given) 1 lb/Acre 24 hours before
# Method: Four different cotton cultivars as indicated in Table 3 were grown in 4-inch pots for two weeks. These cotton plants were either sprayed with DCSA (BASF) at the 1 lb/A rate, or unsprayed (no DCSA application, as control). Experimental plants (treated with DCSA and untreated) were sprayed with Paraquat (Gramoxone®; Syngenta) at 30 gm/ha, 70 gm/ha, and 100 gm/ha rates, 24 hours after the application of DCSA, to simulate oxidative stress. […] The same experiment was repeated at two different growth stages of cotton (2 nodes stage and 5 nodes stage).
SMILES,Doubling efficiency ([2]; 100 μM (each)),10 inch pot survival ([2]; 100 μM (each)),Percent Pollination ([2]; 100 μM (each)),Percent germination ([2]; 100 μM (each)),Doubling efficiency ([2]; 250 μM (each)),10 inch pot survival ([2]; 250 μM (each)),Percent Pollination ([2]; 250 μM (each)),Percent germination ([2]; 250 μM (each)),Doubling efficiency ([2]; 500 μM (each)),10 inch pot survival ([2]; 500 μM (each)),Percent Pollination ([2]; 500 μM (each)),Percent germination ([2]; 500 μM (each)),other results
"CNC.O=C(O)COc1ccc(Cl)cc1Cl [2,4-D]",,,,,,,,,,,,,"POST 2,4-D injury compared to treated non-transgenic control A3525 [1]: significantly (ANOVA test) lower"
"CC(=O)Oc1ccccc1C(=O)O [ASA, acetyl salicylic acid]",0,62,86%,87%,8,60,78%,85%,5,35,71%,68%,
"O=S(=O)([O-])[O-].[Cu+2] [Cu, copper sulfate]",,,,,,,,,,,,,Percent injury [3]: 45% and 45.0a Percent
"O=C(O)CNCP(=O)(O)O [Glyphosate, N-phosphonomethylglycine, reference compound]",,,,,,,,,,,,,"Severity rating (1-9) ([4]; 1 healthy, 9 dead, inoculated check 5): 2; Plant survival rating (out of 10) ([4]; inoculated check 8): 10; Severity rating (1-9) ([5]; 1 healthy, 9 dead, inoculated check 9): 3.5; Plant survival rating (out of 10) ([5]; inoculated check 0): 10"
C[n+]1ccc(-c2cc[n+](C)cc2)cc1 [Paraquat],,,,,,,,,,,,,"% injury ([6]; paraquat 30 g ae/ha at V-3): 32.5%; % injury ([6]; paraquat 70 g ae/ha at V-3): 50.8%; % injury ([6]; paraquat 200 g ae/ha at V-3): 75%; injury rate ([6]; transgenic plants contacted with Paraquat alone (Table 2)): about 75%; % injury at 5 DAT Paraquat alone control 100 g ae/ha ([6]; transgenic soybean event 462-1-21): 75.83%; % injury at 5 DAT Paraquat alone control 100 g ae/ha ([6]; transgenic soybean event 469-13-19): 77.50%; Percentage injury ([7]; cotton ST3273B2RF, Gramoxone 30 g a.i./ha): 35%; Percentage injury ([7]; cotton ST3273B2RF, Gramoxone 70 g a.i./ha): 50%; Percentage injury ([7]; cotton ST3273B2RF, Gramoxone 100 g a.i./ha): 50%; Percentage injury ([7]; cotton ST4575BR, Gramoxone 30 g a.i./ha): 37.5%; Percentage injury ([7]; cotton ST4575BR, Gramoxone 70 g a.i./ha): 42.5%; Percentage injury ([7]; cotton ST4575BR, Gramoxone 100 g a.i./ha): 65%; Percentage injury ([7]; cotton ST4646B2RF, Gramoxone 30 g a.i./ha): 31.5%; Percentage injury ([7]; cotton ST4646B2RF, Gramoxone 70 g a.i./ha): 42.5%; Percentage injury ([7]; cotton ST4646B2RF, Gramoxone 100 g a.i./ha): 70%; Percentage injury ([7]; cotton ST6622RF, Gramoxone 30 g a.i./ha): 42.5%; Percentage injury ([7]; cotton ST6622RF, Gramoxone 70 g a.i./ha): 50%; Percentage injury ([7]; cotton ST6622RF, Gramoxone 100 g a.i./ha): 70%"
"O=C(O)c1ccccc1O [SA, salicylic acid]",2,48,83%,80%,3,58,85%,85%,3,77,89%,85%,
